# Experimental data taken from US9028845B2, “Chimeric immunomodulatory compounds and methods of using the same-IV” (Dynavax Technologies Corporation, priority 2001, dated 2015).
# How the values were obtained:
# human PBMCs = test: Human PBMC cytokine response assay (IFN-γ and IFN-α in cell-free medium by ELISA), with or without cPLGA; assay type: cell-based;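 on IFN-α (pg/ml) mean: 20 µg/mL compound for 24 hours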;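 on IFN-γ (pg/ml) mean: 20 µg/mL compound for 24 hours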
# mice = test: Serum cytokines (IL-12 p40, IL-6, TNF-α) after subcutaneous injection in mice; assay type: in vivo; details: 20 ug subcutaneous, blood 2 hours later
# Experimental: Blood was collected 2 hours later. For the LPS positive control group, mice were injected intraperitoneally with a 200 ul volume, and blood was collected 1.5 hours later (i.e., at the peak of LPS induced TNF-α activity). The blood was clotted and the serum was prepared and stored at −80° C. until assayed. Serum cytokines were assayed using Biosource cytoscreen kits for TNF-α and Pharmingen antibody pairs for mIL-6 and mIL-12. All samples were assayed in duplicate.
# [1] = Table 24, mean of donors 28234-28237
# [2] = Table 25, mean of donors 28250-28253
# [3] = donor 28066, 20 ug/ml, 24 h, + PLGA = premixed with 100 μg/ml cPLGA
# [4] = donor 28067, 20 ug/ml, 24 h, + PLGA = premixed with 100 μg/ml cPLGA
# [5] = donor 28068, 20 ug/ml, 24 h, + PLGA = premixed with 100 μg/ml cPLGA
# [6] = mean of Donors 1-2, 20 μg/ml, 24 h
# [7] = mean of Donors 3-4, 20 μg/ml, 24 h
# [8] = mean of Donors 5-6, 20 μg/ml (mixtures: 20 μg/ml total), 24 h
# [9] = mean of Donors 7-8, 20 μg/ml, 24 h
# [10] = mean of Donors 9-12, 20 μg/ml, 24 h
# [11] = mean of donors 110, 112, 119, 120, Table 14
# [12] = mean of donors 28057-28060, Table 16
# [13] = mean of donors 28065-28068, 20 ug/ml, 24 h, + PLGA = premixed with 100 μg/ml cPLGA
# [14] = mean of donors 28185-28188, Table 15
# [15] = mean of donors 28218-28221, 20 μg/ml, 24 h
substance,measurement,setting,value
"5′-TGACTGTGAACGTTCGAGATGA-3′ (SEQ ID NO: 2) [Compound P-6, reference compound]",IFN-α,"human PBMCs; Table 13, donor 28158",7 pg/mL
same,IFN-γ,"human PBMCs; Table 13, donor 28158",207 pg/mL
same,IFN-α,"human PBMCs; Table 13, donor 28159",32 pg/mL
same,IFN-γ,"human PBMCs; Table 13, donor 28159",231 pg/mL
same,IFN-α mean,"human PBMCs; Table 13, mean of donors",144 pg/mL
same,IFN-γ mean,"human PBMCs; Table 13, mean of donors",611 pg/mL
same,IFN-α,"human PBMCs; Table 24, donor 28234",58 pg/mL
same,IFN-γ,"human PBMCs; Table 24, donor 28234",15 pg/mL
same,IFN-α,"human PBMCs; Table 24, donor 28235",16 pg/mL
same,IFN-γ,"human PBMCs; Table 24, donor 28235",52 pg/mL
same,IFN-α,"human PBMCs; Table 24, donor 28236",16 pg/mL
same,IFN-γ,"human PBMCs; Table 24, donor 28236",51 pg/mL
same,IFN-α,"human PBMCs; Table 24, donor 28237",74 pg/mL
same,IFN-γ,"human PBMCs; Table 24, donor 28237",1167 pg/mL
same,IFN-α mean,human PBMCs; [1],41 pg/mL
same,IFN-γ mean,human PBMCs; [1],321 pg/mL
same,IFN-a,"human PBMCs; Table 25, donor 28250",16 pg/mL
same,IFN-a,"human PBMCs; Table 25, donor 28251",16 pg/mL
same,IFN-g,"human PBMCs; Table 25, donor 28251",18 pg/mL
same,IFN-a,"human PBMCs; Table 25, donor 28252",16 pg/mL
same,IFN-g,"human PBMCs; Table 25, donor 28252",34 pg/mL
same,IFN-a,"human PBMCs; Table 25, donor 28253",16 pg/mL
same,IFN-g,"human PBMCs; Table 25, donor 28253",37 pg/mL
same,IFN-a mean,human PBMCs; [2],16 pg/mL
same,IFN-g mean,human PBMCs; [2],52 pg/mL
same,IFN-α,"human PBMCs; donor 110, Table 14",50 pg/mL
same,IFN-γ,"human PBMCs; donor 110, Table 14",1508 pg/mL
same,IFN-α,"human PBMCs; donor 112, Table 14",172 pg/mL
same,IFN-γ,"human PBMCs; donor 112, Table 14",344 pg/mL
same,IFN-α,"human PBMCs; donor 119, Table 14",234 pg/mL
same,IFN-γ,"human PBMCs; donor 119, Table 14",144 pg/mL
same,IFN-α,"human PBMCs; donor 120, Table 14",72 pg/mL
same,IFN-γ,"human PBMCs; donor 120, Table 14",104 pg/mL
same,IFN-α,"human PBMCs; donor 28057, Table 16",621 pg/mL
same,IFN-γ,"human PBMCs; donor 28057, Table 16",83 pg/mL
same,IFN-α,"human PBMCs; donor 28058, Table 16",396 pg/mL
same,IFN-γ,"human PBMCs; donor 28058, Table 16",103 pg/mL
same,IFN-α,"human PBMCs; donor 28059, Table 16",145 pg/mL
same,IFN-γ,"human PBMCs; donor 28059, Table 16",1230 pg/mL
same,IFN-α,"human PBMCs; donor 28060, Table 16",123 pg/mL
same,IFN-γ,"human PBMCs; donor 28060, Table 16",85 pg/mL
same,IFN-γ (pg/ml) 28065,"human PBMCs; donor 28065 (high background), 20 ug/ml, 24 h, + PLGA = premixed with 100 μg/ml cPLGA, 1000 = outside assay limits",439 pg/mL
same,IFN-α (pg/ml) 28065,"human PBMCs; donor 28065, 20 ug/ml, 24 h, + PLGA = premixed with 100 μg/ml cPLGA",14 pg/mL
same,IFN-α (pg/ml) 28066,human PBMCs; [3],17 pg/mL
same,IFN-γ (pg/ml) 28066,human PBMCs; [3],12 pg/mL
same,IFN-α (pg/ml) 28067,human PBMCs; [4],45 pg/mL
same,IFN-γ (pg/ml) 28067,human PBMCs; [4],28 pg/mL
same,IFN-α (pg/ml) 28068,human PBMCs; [5],126 pg/mL
same,IFN-γ (pg/ml) 28068,human PBMCs; [5],906 pg/mL
same,IFN-a,"human PBMCs; donor 28185, Table 15",120 pg/mL
same,IFN-g,"human PBMCs; donor 28185, Table 15",205 pg/mL
same,IFN-a,"human PBMCs; donor 28186, Table 15",41 pg/mL
same,IFN-g,"human PBMCs; donor 28186, Table 15",17 pg/mL
same,IFN-a,"human PBMCs; donor 28187, Table 15",4 pg/mL
same,IFN-g,"human PBMCs; donor 28187, Table 15",148 pg/mL
same,IFN-a,"human PBMCs; donor 28188, Table 15",4 pg/mL
same,IFN-g,"human PBMCs; donor 28188, Table 15",8 pg/mL
same,IFN-a (pg/ml) 28218,"human PBMCs; donor 28218, 20 μg/ml, 24 h",32 pg/mL
same,IFN-g (pg/ml) 28218,"human PBMCs; donor 28218, 20 μg/ml, 24 h",13 pg/mL
same,IFN-a (pg/ml) 28219,"human PBMCs; donor 28219, 20 μg/ml, 24 h",32 pg/mL
same,IFN-g (pg/ml) 28219,"human PBMCs; donor 28219, 20 μg/ml, 24 h",7 pg/mL
same,IFN-a (pg/ml) 28220,"human PBMCs; donor 28220, 20 μg/ml, 24 h",32 pg/mL
same,IFN-g (pg/ml) 28220,"human PBMCs; donor 28220, 20 μg/ml, 24 h",25 pg/mL
same,IFN-a (pg/ml) 28221,"human PBMCs; donor 28221, 20 μg/ml, 24 h",32 pg/mL
same,IFN-g (pg/ml) 28221,"human PBMCs; donor 28221, 20 μg/ml, 24 h",141 pg/mL
same,IFN-α (pg/ml) mean,human PBMCs; [6],220 pg/mL
same,IFN-γ (pg/ml) mean,human PBMCs; [6],1425 pg/mL
same,IFN-α (pg/ml) mean,human PBMCs; [7],67 pg/mL
same,IFN-γ (pg/ml) mean,human PBMCs; [7],161 pg/mL
same,IFN-α (pg/ml) mean,human PBMCs; [8],268 pg/mL
same,IFN-γ (pg/ml) mean,human PBMCs; [8],621 pg/mL
same,IFN-α (pg/ml) mean,human PBMCs; [9],32 pg/mL
same,IFN-γ (pg/ml) mean,human PBMCs; [9],191 pg/mL
same,IFN-α mean,human PBMCs; [10],16
same,IFN-γ mean,human PBMCs; [10],45
same,IFN-α (pg/ml) mean,human PBMCs; [11],132 pg/mL
same,IFN-γ (pg/ml) mean,human PBMCs; [11],525 pg/mL
same,IFN-α (pg/ml) mean,human PBMCs; [12],321 pg/mL
same,IFN-γ (pg/ml) mean,human PBMCs; [12],375 pg/mL
same,IFN-α (pg/ml) mean,human PBMCs; [13],50 pg/mL
same,IFN-γ (pg/ml) mean,human PBMCs; [13],346 pg/mL
same,IFN-a (pg/ml) mean,human PBMCs; [14],42 pg/mL
same,IFN-g (pg/ml) mean,human PBMCs; [14],94 pg/mL
same,IFN-a (pg/ml) mean,human PBMCs; [15],32 pg/mL
same,IFN-g (pg/ml) mean,human PBMCs; [15],47 pg/mL
same,IFN-a (pg/ml) ×2,"human PBMCs; mean ×2, Table 15",84 pg/mL
same,IFN-g (pg/ml) ×4,"human PBMCs; mean ×4, Table 15",378 pg/mL
same,"induction of serum IL-12 p40, IL-6 and TNF-α, in words",mice,"induced IL-12 p40, IL-6, and TNF-α"
